Legend:
[1] = molecular target: T1, human CYP11B1 (Homo sapiens, UniProt P15538); test: Inhibition of hCYP11B1 in transfected V79 cells; format: cell-based; settings: hamster V79 cells expressing human CYP11B1; substrate 11-deoxycortisol 200 nM
T1 construct: expressed in transfected cells
T1 sequence (P15538 25-503): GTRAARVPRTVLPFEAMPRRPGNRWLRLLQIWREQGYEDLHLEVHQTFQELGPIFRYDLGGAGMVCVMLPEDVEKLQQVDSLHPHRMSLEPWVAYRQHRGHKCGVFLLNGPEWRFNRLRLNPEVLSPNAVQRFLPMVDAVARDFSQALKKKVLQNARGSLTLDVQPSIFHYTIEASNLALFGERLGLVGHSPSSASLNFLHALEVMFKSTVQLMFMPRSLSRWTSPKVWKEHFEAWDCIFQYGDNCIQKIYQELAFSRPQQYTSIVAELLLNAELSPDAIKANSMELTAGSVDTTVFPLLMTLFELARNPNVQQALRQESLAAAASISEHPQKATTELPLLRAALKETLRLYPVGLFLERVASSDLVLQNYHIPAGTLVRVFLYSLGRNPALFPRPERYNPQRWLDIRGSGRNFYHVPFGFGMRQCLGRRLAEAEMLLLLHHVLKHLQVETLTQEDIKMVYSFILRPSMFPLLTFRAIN
Procedure, shortened: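 V79 hamster cells stably expressing human CYP11B1 and rat NADPH-P450 reductase were preincubated with compounds for 2 h. 11-Deoxycortisol (200 nM) was then added as substrate for 30 min before ethyl acetate quench. Substrate and product were quantified by LC-MS/MS or HPLC at 260 nm, and IC50 was derived from percent inhibition.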

[2] = molecular target: T2, human CYP11B2 (Homo sapiens, UniProt P19099); test: Inhibition of hCYP11B2 in transfected V79 cells; format: cell-based; settings: hamster V79 cells expressing human CYP11B2; substrate 11-deoxycorticosterone 200 nM
T2 construct: expressed in transfected cells
T2 sequence (P19099 25-503): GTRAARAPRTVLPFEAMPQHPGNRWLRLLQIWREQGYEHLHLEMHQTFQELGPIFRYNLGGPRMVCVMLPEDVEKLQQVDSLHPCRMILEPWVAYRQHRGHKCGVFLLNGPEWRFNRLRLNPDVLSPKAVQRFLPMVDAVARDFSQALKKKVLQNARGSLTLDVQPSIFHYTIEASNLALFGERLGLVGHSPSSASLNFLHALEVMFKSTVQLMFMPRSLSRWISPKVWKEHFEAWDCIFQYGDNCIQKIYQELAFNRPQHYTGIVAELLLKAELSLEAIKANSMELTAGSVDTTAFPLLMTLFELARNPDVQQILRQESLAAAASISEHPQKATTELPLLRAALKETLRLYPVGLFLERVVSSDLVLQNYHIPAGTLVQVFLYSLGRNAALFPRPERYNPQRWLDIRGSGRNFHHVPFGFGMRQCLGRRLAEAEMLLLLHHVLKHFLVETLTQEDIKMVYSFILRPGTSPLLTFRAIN
Procedure, shortened: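 Hamster V79 cells stably co-expressing human CYP11B2 and rat NADPH-P450 reductase were pre-incubated with compounds for 2 hours, then given 200 nM 11-deoxycorticosterone for 30 minutes before ethyl acetate quench. Substrate and product were quantified by LC-MS/MS or HPLC at 260 nm, and IC50 was derived from percent inhibition.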

Row | Compound | IC50 [1] [nM] | IC50 [2] [nM]
1 | N#Cc1ccc(-c2cncc3c2CCN3C(=O)c2ccc(F)cc2)cc1 [C25, 4-(1-(4-Fluorobenzoyl)-2,3-dihydro-1H-pyrrolo[2,3-c]pyridin-4-yl)benzonitrile] | 988 | 30
2 | N#Cc1ccc(-c2cncc3c2CCN3S(=O)(=O)c2cccc(F)c2)cc1 [C6, 4-(1-((3-Fluorophenyl)sulfonyl)-2,3-dihydro-1H-pyrrolo[2,3-c]pyridin-4-yl)benzonitrile] | 1.2 | 0.3
3 | COc1cccc(C(=O)n2ccc3c(-c4ccc(C#N)cc4)cncc32)c1 [E24, 4-(1-(3-Methoxybenzoyl)-1H-pyrrolo[2,3-c]pyridin-4-yl)benzonitrile] | 82 | 1.9
4 | N#Cc1ccc(-c2cncc3c2OCCN3S(=O)(=O)C2CN(S(=O)(=O)c3ccc(F)cc3)C2)cc1 [O116, 4-(4-((1-((4-Fluorophenyl)sulfonyl)azetidin-3-yl)sulfonyl)-3,4-dihydro-2H-pyrido[4,3-b][1, 4]oxazin-8-yl)benzonitrile] | 54 | 3.1
5 | O=C(c1ccc(F)cc1)n1ccc2c(-c3ccc4ncoc4c3)cncc21 [E38, (4-(Benzo[d]oxazol-6-yl)-1H-pyrrolo[2,3-c]pyridin-1-yl)(4-fluorophenyl)methanone] | 49 | 8
6 | N#CCC(=O)N1CCOc2c(-c3ccc(C#N)cc3)cncc21 [O32, 4-(4-(2-Cyanoacetyl)-3,4-dihydro-2H-pyrido[4,3-b][1,4]oxazin-8-yl)benzonitrile] | 785 | 18
7 | N#Cc1ccc(-c2cncc3c2OCCN3C(=O)C2CN(c3cccc(C#N)c3)C2)cc1 [O86, 3-(3-(8-(4-Cyanophenyl)-3,4-dihydro-2H-pyrido[4,3-b][1,4]oxazine-4-carbonyl)azetidin-1-yl)benzonitrile] | 72 | 0.8
8 | O=C(c1ccccc1F)N1CCc2c(-c3ccc4nccn4c3)cncc21 [C57, (2-Fluorophenyl)(4-(imidazo[1,2-a]pyridin-6-yl)-2,3-dihydro-1H-pyrrolo[2,3-c]pyridin-1-yl)methanone] | 876 | 27
9 | N#Cc1ccc(S(=O)(=O)N2CCOc3c(-c4ccc5ncoc5c4)cncc32)cc1 [O131, 4-((8-(Benzo[d]oxazol-6-yl)-2,3-dihydro-4H-pyrido[4,3-b][1,4]oxazin-4-yl)sulfonyl)benzonitrile] | 248 | 3.3
10 | COc1ccc(CN2CC(S(=O)(=O)N3CCSc4c(-c5ccc(C#N)cc5)cncc43)C2)cc1 [S84, 4-(4-((1-(4-Methoxybenzyl)azetidin-3-yl)sulfonyl)-3,4-dihydro-2H-pyrido[4,3-b][1,4]thiazin-8-yl)benzonitrile] | 57 | 1.1
11 | COc1ccc(S(=O)(=O)N2CCSc3c(-c4ccc(F)c(C)c4)cncc32)cc1 [S33, 8-(4-Fluoro-3-methylphenyl)-4-((4-methoxyphenyl)sulfonyl)-3,4-dihydro-2H-pyrido[4,3-b][1,4]thiazine] | 5.4 | 0.09
12 | N#Cc1ccc(-c2cncc3c2OCCN3C(=O)C2CN(C(=O)c3ccc(F)cc3)C2)cc1 [O57, 4-(4-(1-(4-Fluorobenzoyl)azetidine-3-carbonyl)-3,4-dihydro-2H-pyrido[4,3-b][1,4]oxazin-8-yl)benzonitrile] | 102 | 1.6
13 | O=C(c1ccccc1F)N1CCc2c(-c3cc4ccccc4s3)cncc21 [C61, (4-(Benzo[b]thiophen-2-yl)-2,3-dihydro-1H-pyrrolo[2,3-c]pyridin-1-yl)(2-fluorophenyl)methanone] | 1350 | 216
14 | N#Cc1ccc(-c2cncc3c2OCCN3C(=O)c2cccnc2)cc1 [O30, 4-(4-Nicotinoyl-3,4-dihydro-2H-pyrido[4,3-b][1,4]oxazin-8-yl)benzonitrile] | 4690 | 110
15 | N#Cc1ccc(-c2cncc3c2OCCN3S(=O)(=O)c2ccc3ccccc3c2)cc1 [O18, 4-(4-(Naphthalen-2-ylsulfonyl)-3,4-dihydro-2H-pyrido[4,3-b][1,4]oxazin-8-yl)benzonitrile] | 0.91 | 0.2
16 | COC(=O)c1ccc(C(=O)N2CCc3c(-c4ccc(C#N)cc4)cncc32)cc1 [C47] | 19 | 17
17 | N#Cc1ccc(-c2cncc3c2SCCN3S(=O)(=O)C2CN(Cc3cccc(C#N)c3)C2)cc1 [S81, 3-((3-((8-(4-Cyanophenyl)-2,3-dihydro-4H-pyrido[4,3-b][1,4]thiazin-4-yl)sulfonyl)azetidin-1-yl)methyl)benzonitrile] | 19 | 0.4
18 | N#Cc1ccc(-c2cncc3c2SCCN3C(=O)c2cccc(C(F)(F)F)c2)cc1 [S87, 4-(4-(3-(Trifluoromethyl)benzoyl)-3,4-dihydro-2H-pyrido[4,3-b][1,4]thiazin-8-yl)benzonitrile] | 522 | 12
19 | COc1ccc(S(=O)(=O)N2CCSc3c(-c4ccc(C(F)(F)F)cc4)cncc32)cc1 [S32, 4-((4-methoxyphenyl)sulfonyl)-8-(4-(trifluoromethyl)phenyl)-3,4-dihydro-2H-pyrido[4,3-b][1,4]thiazine] | 468 | 10.3
20 | O=C(c1ccccc1F)N1CCc2c(-c3ccc4[nH]ccc4c3)cncc21 [C62, (4-(1H-indol-5-yl)-2,3-dihydro-1H-pyrrolo[2,3-c]pyridin-1-yl)(2-fluorophenyl)methanone] | 512 | 30
21 | COc1ccc(C(=O)N2CC(C(=O)N3CCOc4c(-c5ccc(C#N)cc5)cncc43)C2)cc1 [O77, 4-(4-(1-(4-Methoxybenzoyl)azetidine-3-carbonyl)-3,4-dihydro-2H-pyrido[4,3-b][1,4]oxazin-8-yl)benzonitrile] | 195 | 2
22 | N#Cc1ccc(-c2cncc3c2CCN3S(=O)(=O)c2cccnc2)cc1 [C10, 4-(1-(Pyridin-3-ylsulfonyl)-2,3-dihydro-1H-pyrrolo[2,3-c]pyridin-4-yl)benzonitrile] | 1.7 | 1.3
23 | N#Cc1ccc(-c2cncc3c2ccn3C(=O)c2ccccc2F)cc1 [E28, 4-(1-(2-Fluorobenzoyl)-1H-pyrrolo[2,3-c]pyridin-4-yl)benzonitrile] | 17 | 2.1
24 | N#Cc1ccc(-c2cncc3c2OCCN3C(=O)C2CN(S(=O)(=O)c3ccc([N+](=O)[O-])cc3)C2)cc1 [O62, 4-(4-(1-((4-Nitrophenyl)sulfonyl)azetidine-3-carbonyl)-3,4-dihydro-2H-pyrido[4,3-b][1,4]oxazin-8-yl)benzonitrile] | 178 | 3.3
25 | N#Cc1ccc(-c2cncc3c2CCN3S(=O)(=O)c2cccc3cccnc23)cc1 [C11, 4-(1-(Quinolin-8-ylsulfonyl)-2,3-dihydro-1H-pyrrolo[2,3-c]pyridin-4-yl)benzonitrile] | 0.7 | 1
26 | Cc1ccccc1C(=O)n1ccc2c(-c3ccc(C#N)cc3)cncc21 [E27, 4-(1-(2-Methylbenzoyl)-1H-pyrrolo[2,3-c]pyridin-4-yl)benzonitrile] | 73 | 1.5
27 | N#Cc1ccc(S(=O)(=O)N2CCSc3c(-c4cc5ccccc5o4)cncc32)cc1 [S40, 4-((8-(Benzofuran-2-yl)-2,3-dihydro-4H-pyrido[4,3-b][1,4]thiazin-4-yl)sulfonyl)benzonitrile] | 657 | 6.7
28 | N#Cc1ccc(-c2cncc3c2ccn3S(=O)(=O)c2ccccc2)cc1 [E3, 4-(1-(Phenylsulfonyl)-1H-pyrrolo[2,3-c]pyridin-4-yl)benzonitrile] | 0.3 | 0.4
29 | COc1ccc(CN2CC(C(=O)N3CCOc4c(-c5ccc(C#N)cc5)cncc43)C2)cc1 [O83, 4-(4-(1-(4-Methoxybenzyl)azetidine-3-carbonyl)-3,4-dihydro-2H-pyrido[4,3-b][1,4]oxazin-8-yl)benzonitrile] | 112 | 1
30 | N#Cc1ccc(-c2cncc3c2CCN3S(=O)(=O)c2ccccc2)cc1 [C21, 4-(1-(Phenylsulfonyl)-2,3-dihydro-1H-pyrrolo[2,3-c]pyridin-4-yl)benzonitrile] | 0.01 | 0.01
